From publication PMC5408782, “Engineering bacterial thiosulfate and tetrathionate sensors for detecting gut inflammation” (Molecular Systems Biology, 2017)

Assays:
[1] = target: T1, ThsSR (ThsS/R; Shal_3128/9) (Shewanella halifaxensis, UniProt B0TQ83); assay: sfGFP reporter, flow cytometry, Hill fit; assay type: cell-based; settings: read-out: k 1/2
T1 construct: E. coli codon-optimised ThsS (pKD182, IPTG-inducible) and ThsR (pKD184, aTc-inducible) in E. coli BW28357; PphsA342-sfGFP reporter; membrane histidine kinase with PhnD-like periplasmic sensor domain; with Thiosulfate response regulator ThsR
T1 sequence (B0TQ83 1-594): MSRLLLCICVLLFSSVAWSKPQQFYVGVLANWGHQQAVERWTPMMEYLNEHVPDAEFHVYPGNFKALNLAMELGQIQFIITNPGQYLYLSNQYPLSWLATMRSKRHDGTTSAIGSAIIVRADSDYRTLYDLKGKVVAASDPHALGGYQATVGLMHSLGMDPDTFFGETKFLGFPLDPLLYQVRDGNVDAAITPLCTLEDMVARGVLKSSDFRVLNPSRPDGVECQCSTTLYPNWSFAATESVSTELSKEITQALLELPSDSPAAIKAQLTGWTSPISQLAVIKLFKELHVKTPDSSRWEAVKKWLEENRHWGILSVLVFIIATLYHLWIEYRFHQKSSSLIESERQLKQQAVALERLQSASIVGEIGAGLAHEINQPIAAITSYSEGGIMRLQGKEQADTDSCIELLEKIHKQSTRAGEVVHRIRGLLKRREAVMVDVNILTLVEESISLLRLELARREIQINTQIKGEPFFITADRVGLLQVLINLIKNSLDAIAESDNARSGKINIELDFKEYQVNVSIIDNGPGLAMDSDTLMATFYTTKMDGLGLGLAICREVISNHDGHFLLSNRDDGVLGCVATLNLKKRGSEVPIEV

[2] = target: T1, ThsSR (ThsS/R; Shal_3128/9); assay: sfGFP reporter, flow cytometry, repression transfer function; assay type: cell-based; settings: read-out: half-maximal inhibition
[3] = system: T2, S. baltica TtrSR (Sbal195_3859/8); assay: sfGFP reporter, flow cytometry, Hill fit; assay type: cell-based, Shewanella baltica; settings: E. coli BW28357, aerobic, M9 + glycerol, 37°C, 10 μM IPTG; PttrB185-269 reporter; activation; read-out: k 1/2
T2 construct: gene ttrS; E. coli codon-optimised TtrS (pKD227, IPTG-inducible) and TtrR (pKD226, aTc-inducible) in E. coli BW28357; PttrB185-269-sfGFP reporter; with Tetrathionate response regulator TtrR

Row | Structure (SMILES) | EC50 [1] [µM] | IC50 [2] [µM] | EC50 [3] [µM]
1 | O=S(O)(O)=S [thiosulfate] | 280 ± 10 | – | –
2 | O=S(O)O [sulfite] | – | 390 ± 10 | –
3 | O=S(=O)(O)SSS(=O)(=O)O [tetrathionate] | – | 550 ± 20 | 50 ± 3
